Source: patent publication US20230085307A1, “PYRIDAZINONE COMPOUND AND HERBICIDE” (NISSAN CHEMICAL CORPORATION, priority 2019, published 2023)

How the values were obtained:
barnyard grass [1] = assay: Test Example 3: herbicidal effect by foliage application, Wagner pot (Table 18, symbol H); type: in vivo, barnyard grass (Echinochloa crus-galli)
Procedure: (§1) [Test Example 3] Herbicidal Effect Test by Foliage Application After alluvial soil was placed into 1/10000 are of Wagner pot, water was poured and mixed to form a submerged condition having a water depth of 0.1 cm to 0.5 cm. Seeds of barnyard grass, Chinese sprangletop, rice flat sedge, and rice were sowed and the pot was placed in a greenhouse at 25° C. to 30° C. for growth of the plants. After 14-day growth of the plants, the emulsion agent of the compound of the present invention prepared according to Formulation Example 2 was diluted with water so as to achieve a predetermined herbicide amount, and the diluted emulsion agent was uniformly applied to a foliage part with a small-sized spray. Three weeks after the herbicide application, the effect of the herbicide on each plant was evaluated according to the criteria of Test Example 1.

Chinese sprangletop = assay: Test Example 3: herbicidal effect by foliage application, Wagner pot (Table 18, symbol D); type: in vivo, chinese sprangletop (Leptochloa chinensis)
Procedure: as §1

rice flat sedge = assay: Test Example 3: herbicidal effect by foliage application, Wagner pot (Table 18, symbol E); type: in vivo, rice flat sedge (Cyperus iria)
Procedure: as §1

southern crabgrass = assay: Test Example 5: herbicidal effect by foliage application, plastic box (Table 20, symbol F); type: in vivo, southern crabgrass (Digitaria ciliaris); conditions: foliage application, 320 g/ha, 3 weeks after application
Text: (§2) [Test Example 5] Herbicidal Effect Test by Foliage Application
(§3) Sterilized diluvial soil was placed in a plastic box having a length of 21 cm, a width of 13 cm, and a depth of 7 cm. The seeds of each of southern crabgrass, green foxtail, barnyard grass, wild oat, blackgrass, Italian ryegrass, windgrass, velvetleaf, redroot pigweed, lambsquarters, chickweed, false cleavers, persian speedwell, corn, soybean, rice, wheat, beet, and rapeseed were sowed in a spot-like manner and covered with the soil having a thickness of about 1.5 cm. Thereafter, the plants were grown in a greenhouse at 25° C. to 30° C. After 14-day growth of the plants, the emulsion agent of the compound of the present invention prepared according to Formulation Example 2 was diluted with water so as to achieve a predetermined herbicide amount, and the diluted emulsion agent was uniformly applied to a foliage part with a small-sized spray. Three weeks after the herbicide application, the effect of the herbicide on each plant was evaluated according to the criteria of Test Example 1.

green foxtail = assay: Test Example 5: herbicidal effect by foliage application, plastic box (Table 20, symbol G); type: in vivo, green foxtail (Setaria viridis); conditions: foliage application, 320 g/ha, 3 weeks after application
Text: as §2, §3

wild oat = assay: Test Example 5: herbicidal effect by foliage application, plastic box (Table 20, symbol I); type: in vivo, wild oat (Avena fatua); conditions: foliage application, 320 g/ha, 3 weeks after application
Text: as §2, §3

velvetleaf = assay: Test Example 5: herbicidal effect by foliage application, plastic box (Table 20, symbol M); type: in vivo, velvetleaf (Abutilon theophrasti); conditions: foliage application, 320 g/ha, 3 weeks after application
Text: as §2, §3

windgrass = assay: Test Example 5: herbicidal effect by foliage application, plastic box (Table 20, symbol L); type: in vivo, windgrass (Apera spica-venti); conditions: foliage application, 320 g/ha, 3 weeks after application
Text: as §2, §3

lambsquarters = assay: Test Example 5: herbicidal effect by foliage application, plastic box (Table 20, symbol O); type: in vivo, lambsquarters (Chenopodium album); conditions: foliage application, 320 g/ha, 3 weeks after application
Text: as §2, §3

Italian ryegrass = assay: Test Example 5: herbicidal effect by foliage application, plastic box (Table 20, symbol K); type: in vivo, Italian ryegrass (Lolium multiflorum); conditions: foliage application, 320 g/ha, 3 weeks after application
Text: as §2, §3

barnyard grass [2] = assay: Test Example 5: herbicidal effect by foliage application, plastic box (Table 20, symbol H); type: in vivo, barnyard grass (Echinochloa crus-galli); conditions: foliage application, 320 g/ha, 3 weeks after application
Text: as §2, §3

persian speedwell = assay: Test Example 5: herbicidal effect by foliage application, plastic box (Table 20, symbol R); type: in vivo, Persian speedwell (Veronica persica); conditions: foliage application, 320 g/ha, 3 weeks after application
Text: as §2, §3

blackgrass = assay: Test Example 5: herbicidal effect by foliage application, plastic box (Table 20, symbol J); type: in vivo, blackgrass (Alopecurus myosuroides); conditions: foliage application, 320 g/ha, 3 weeks after application
Text: as §2, §3

[3] = amount of applied herbicide 320 g/ha

| SMILES | herbicidal effect on H (barnyard grass), rating 0-5 (barnyard grass [1]; 80 g/ha) | herbicidal effect on D (Chinese sprangletop), rating 0-5 (Chinese sprangletop; 80 g/ha) | herbicidal effect on E (rice flat sedge), rating 0-5 (rice flat sedge; 80 g/ha) | effect on southern crabgrass (F) (southern crabgrass) | herbicidal effect on H (barnyard grass), rating 0-5 (barnyard grass [1]; 320 g/ha) | effect on green foxtail (G) (green foxtail) | effect on wild oat (I) (wild oat) | herbicidal effect on D (Chinese sprangletop), rating 0-5 (Chinese sprangletop; 320 g/ha) | effect on velvetleaf (M) (velvetleaf) | effect on windgrass (L) (windgrass) | effect on lambsquarters (O) (lambsquarters) | effect on Italian ryegrass (K) (Italian ryegrass) | herbicidal effect on E (rice flat sedge), rating 0-5 (rice flat sedge; 320 g/ha) | effect on barnyard grass (H) (barnyard grass [2]) | effect on persian speedwell (R) (persian speedwell) | effect on blackgrass (J) (blackgrass) | herbicidal effect on H: barnyard grass (barnyard grass [1]; [3]) | herbicidal effect on D: Chinese sprangletop (Chinese sprangletop; [3]) | herbicidal effect on E: rice flat sedge (rice flat sedge; [3]) |
| --- | --- | --- | --- | --- | --- | --- | --- | --- | --- | --- | --- | --- | --- | --- | --- | --- | --- | --- | --- |
| CCCC(=O)Oc1c(OC)nn(C)c(=O)c1-c1c(-c2ccc(Oc3ccccc3)cc2)sc2ccccc12 [1-165] | 2 (Herbicidal rate of 20% or more and less than 40%) | 0 (Herbicidal rate of 5% or less (almost no effect)) | 0 (Herbicidal rate of 5% or less (almost no effect)) | – | – | – | – | – | – | – | – | – | – | – | – | – | – | – | – |
| CCCC(=O)Oc1c(OC)nn(C)c(=O)c1-c1c(-c2ccsc2)sc2ccccc12 [1-193] | 2 (Herbicidal rate of 20% or more and less than 40%) | 1 (Herbicidal rate of 5% or more and less than 20%) | 0 (Herbicidal rate of 5% or less (almost no effect)) | – | – | – | – | – | – | – | – | – | – | – | – | – | – | – | – |
| COc1nn(C)c(=O)c(-c2c(-c3cc4ccccc4o3)sc3ccccc23)c1O [1-194] | – | – | – | 0 (Herbicidal rate of 5% or less (almost no effect)) | 0 (Herbicidal rate of 5% or less (almost no effect)) | 0 (Herbicidal rate of 5% or less (almost no effect)) | 1 (Herbicidal rate of 5% or more and less than 20%) | 0 (Herbicidal rate of 5% or less (almost no effect)) | 0 (Herbicidal rate of 5% or less (almost no effect)) | 0 (Herbicidal rate of 5% or less (almost no effect)) | 0 (Herbicidal rate of 5% or less (almost no effect)) | 3 (Herbicidal rate of 40% or more and less than 70%) | 2 (Herbicidal rate of 20% or more and less than 40%) | 0 (Herbicidal rate of 5% or less (almost no effect)) | 0 (Herbicidal rate of 5% or less (almost no effect)) | 0 (Herbicidal rate of 5% or less (almost no effect)) | – | – | – |
| CCCC(=O)Oc1c(OC)nn(C)c(=O)c1-c1c(-c2cc3ccccc3o2)sc2ccccc12 [1-195] | – | – | – | 0 (Herbicidal rate of 5% or less (almost no effect)) | – | 0 (Herbicidal rate of 5% or less (almost no effect)) | 0 (Herbicidal rate of 5% or less (almost no effect)) | – | 0 (Herbicidal rate of 5% or less (almost no effect)) | 0 (Herbicidal rate of 5% or less (almost no effect)) | 0 (Herbicidal rate of 5% or less (almost no effect)) | 0 (Herbicidal rate of 5% or less (almost no effect)) | – | 0 (Herbicidal rate of 5% or less (almost no effect)) | 0 (Herbicidal rate of 5% or less (almost no effect)) | 0 (Herbicidal rate of 5% or less (almost no effect)) | – | – | – |
| Cc1nn(C)c(=O)c(-c2c(-c3ccc(CO)cc3)sc3ccccc23)c1O [1-238] | – | – | – | 3 (Herbicidal rate of 40% or more and less than 70%) | 4 (Herbicidal rate of 70% or more and less than 90%) | 4 (Herbicidal rate of 70% or more and less than 90%) | 0 (Herbicidal rate of 5% or less (almost no effect)) | 4 (Herbicidal rate of 70% or more and less than 90%) | 5 (Herbicidal rate of 90% or more (almost completely withered)) | 0 (Herbicidal rate of 5% or less (almost no effect)) | 4 (Herbicidal rate of 70% or more and less than 90%) | 3 (Herbicidal rate of 40% or more and less than 70%) | 4 (Herbicidal rate of 70% or more and less than 90%) | 3 (Herbicidal rate of 40% or more and less than 70%) | 5 (Herbicidal rate of 90% or more (almost completely withered)) | 0 (Herbicidal rate of 5% or less (almost no effect)) | – | – | – |
| Cc1nn(C)c(=O)c(-c2c(-c3ccc(C(F)(F)F)cc3Cl)sc3ccc(F)cc23)c1O [2-356] | – | – | – | – | – | – | – | – | – | – | – | – | – | – | – | – | 4 (Herbicidal rate of 70% or more and less than 90%) | 4 (Herbicidal rate of 70% or more and less than 90%) | 4 (Herbicidal rate of 70% or more and less than 90%) |
